Experimental data from ChEMBL document CHEMBL4840376, “Berkeleylactones and a Citreohybriddione Analogue from Penicillium turbatum” (2021).
“And” between values parts separate entries of the source, which are not always exact repeats. Equal entries are not always repeated. The source made the active and inactive calls. The rule behind the calls is not given here.

What was measured:
[1] = system: Nakaseomyces glabratus; assay: Antibiotic activity against Candida glabrata assessed as reduction in fungal growth by Alamar Blue dye based CLSI broth microdilution method; type: functional
[2] = system: Staphylococcus aureus; assay: Antibiotic activity against Staphylococcus aureus ATCC 13709 assessed as reduction in bacterial growth by Alamar Blue dye based CLSI broth microdilution method; type: functional
[3] = system: Streptococcus pyogenes; assay: Antibiotic activity against Streptococcus pyogenes assessed as reduction in bacterial growth by Alamar Blue dye based CLSI broth microdilution method; type: functional
[4] = system: Bacillus subtilis; assay: Antibiotic activity against Bacillus subtilis ATCC 6633 assessed as reduction in bacterial growth by Alamar Blue dye based CLSI broth microdilution method; type: functional
[5] = system: Pseudomonas aeruginosa; assay: Antibiotic activity against Pseudomonas aeruginosa assessed as reduction in bacterial growth by Alamar Blue dye based CLSI broth microdilution method; type: functional, organism-based
[6] = system: Candida albicans; assay: Antibiotic activity against Candida albicans assessed as reduction in fungal growth by Alamar Blue dye based CLSI broth microdilution method; type: functional
[7] = system: Klebsiella pneumoniae; assay: Antibiotic activity against Klebsiella pneumoniae ATCC 10031 assessed as reduction in bacterial growth by Alamar Blue dye based CLSI broth microdilution method; type: functional, organism-based
[8] = system: Bacillus anthracis; assay: Antibiotic activity against Bacillus anthracis assessed as reduction in bacterial growth by Alamar Blue dye based CLSI broth microdilution method; type: functional
[9] = system: Escherichia coli; assay: Antibiotic activity against Escherichia coli ATCC 25922 assessed as reduction in bacterial growth by Alamar Blue dye based CLSI broth microdilution method; type: functional, organism-based
[10] = system: Staphylococcus aureus; assay: Antibiotic activity against multidrug-resistant Staphylococcus aureus CAIRD148 assessed as reduction in bacterial growth by Alamar Blue dye based CLSI broth microdilution method; type: functional, organism-based
[11] = system: Staphylococcus aureus; assay: Antibiotic activity against multidrug-resistant Staphylococcus aureus CAIRD116 assessed as reduction in bacterial growth by Alamar Blue dye based CLSI broth microdilution method; type: functional, organism-based
[12] = system: Staphylococcus aureus; assay: Antibiotic activity against multidrug-resistant Staphylococcus aureus NE277 assessed as reduction in bacterial growth by Alamar Blue dye based CLSI broth microdilution method; type: functional, organism-based
[13] = system: Staphylococcus aureus; assay: Antibiotic activity against multidrug-resistant Staphylococcus aureus CAIRD142 assessed as reduction in bacterial growth by Alamar Blue dye based CLSI broth microdilution method; type: functional, organism-based

Structure (SMILES)	MIC [1]	MIC [2]	MIC [3]	MIC [4]	Activity [5]	MIC [6]	Activity [7]	MIC [8]	Activity [9]	Activity [10]	Activity [11]	Activity [12]	Activity [13]
C[C@@H](O)CCCCCCCCC[C@H](OC(=O)CCC(=O)O)[C@H]1CCC(=O)O1	500 µM and 193 µg/mL	500 µM and 193 µg/mL	> 500 µM and 193 µg/mL	500 µM and 193 µg/mL	inactive	125 µM and 48 µg/mL	inactive	> 500 µM and 193 µg/mL	inactive				
C[C@@H]1CCC(O)CCCCCC[C@H](OC(=O)CCC(=O)O)C(=O)/C=C/C(=O)O1 (some centres undefined)	> 500 µM and > 200 µg/mL	32 µM and 13 µg/mL	250 µM and 100 µg/mL	125 µM and 50 µg/mL		> 500 µM and > 200 µg/mL		64 µM and 26 µg/mL		Active	Active	Active	Active
C[C@@H]1CCCCCCCCC[C@H](O)[C@H](O)/C=C/C(=O)O1	> 250 µM and > 71 µg/mL	250 µM and 71 µg/mL	> 250 µM and > 71 µg/mL	> 250 µM and > 71 µg/mL		> 250 µM and > 71 µg/mL		250 µM and > 71 µg/mL					
C[C@@H]1CCCCCCCCC[C@H](OC(=O)CCC(=O)O)C(=O)/C=C/C(=O)O1	125 µM and 48 µg/mL	8 µM and 3 µg/mL	125 µM and 48 µg/mL	32 µM and 12 µg/mL		250 µM and 96 µg/mL		16 µM and 6 µg/mL		Active	Active	Active	Active
C[C@@H]1CCCCCCCCC[C@H](OC(=O)CCC(=O)O)[C@H](O)CCC(=O)O1	> 500 µM and > 45 µg/mL	> 500 µM and > 45 µg/mL	> 500 µM and > 45 µg/mL	> 500 µM and > 45 µg/mL	inactive	> 500 µM and > 45 µg/mL	inactive	> 500 µM and > 45 µg/mL	inactive				
C[C@@H]1CCCCCCCCCC[C@H](O)/C=C/C(=O)O1	> 250 µM and > 67 µg/mL	125 µM and 33 µg/mL	250 µM and 67 µg/mL	125 µM and 33 µg/mL		> 250 µM and > 67 µg/mL		125 µM and > 67 µg/mL					
C[C@@H]1CCCCCCCCC[C@H](OC(=O)CCC(=O)O)[C@H](O)/C=C/C(=O)O1	> 250 µM and > 90 µg/mL	125 µM and 45 µg/mL	> 250 µM and > 90 µg/mL	> 250 µM and > 90 µg/mL		> 250 µM and > 90 µg/mL		> 250 µM and > 90 µg/mL					
COC(=O)[C@]12C(=O)[C@]3(C)O[C@](C)(C=C4[C@]5(C=O)CC[C@H](OC(C)=O)C(C)(C)[C@H]5CC[C@@]41C)[C@@]2(C)C3=O	> 500 µM and > 248 µg/mL	125 µM and 62 µg/mL		250 µM and 124 µg/mL	inactive	> 500 µM and > 248 µg/mL	inactive	125 µM and 62 µg/mL	inactive				
C[C@@H]1CCCCCCCCC[C@H](O)[C@H](OC(=O)CCC(=O)O)/C=C/C(=O)O1	> 250 µM and > 90 µg/mL	125 µM and 45 µg/mL	> 250 µM and > 90 µg/mL	125 µM and 45 µg/mL		> 250 µM and > 90 µg/mL		250 µM and > 90 µg/mL					
C[C@@H](O)CCCCCCCCC[C@H](O)[C@H]1CCC(=O)O1	> 500 µM and > 143 µg/mL	500 µM and 143 µg/mL	16 µM and 5 µg/mL	> 500 µM and > 143 µg/mL	inactive	> 500 µM and > 143 µg/mL	inactive	> 500 µM and > 143 µg/mL	inactive				
